The record followed here is patent US20220031680A1, “Donecopride As Neuroprotective Agent In the Treatment of Neurodegenerative Diseases” (priority 2018, published 2022).

Marks after values point to notes of the source that are not given here.

The test system of the experiment is rat primary hippocampal neurons injured with Aβ 1-42. Briefly: Survival and neurite network of MAP-2 neurons in primary hippocampal neurons injured with Aβ1-42. The experiment is classed as cell-based. The note with it: for MAP-2 neurite network (% of control) / MAP-2 neurons (% of control) / Neurite network/MAP-2 neurons (% of control): Aβ 1-42 (20 μM) 24 h; for MAP-2 neurons (% of control): 1 h preincubation; for Neurite network/MAP-2 neurons (% of control): neurite network normalized by number of neurons. As to the method:
Rat hippocampal neurons were cultured as described by Callizot et al. (2013) J. Neurosci. Res. 91706-716. Pregnant female rats of 17 days gestation (Rats Wistar; Janvier Labs France) were killed using a deep anesthesia with CO2 chamber followed by a cervical dislocation. Then, fetuses were removed from the uterus and immediately placed in ice-cold L15 Leibovitz medium with a 2% penicillin (10,000 U/ml) and streptomycin (10 mg/ml) solution (PS) and 1% bovine serum albumin (BSA). Hippocampal neurons were treated for 20 min at 37° C. with a trypsin-EDTA solution at a final concentration of 0.05% trypsin and 0.02% EDTA. The dissociation was stopped by adding Dulbecco's modified Eagle's medium (DMEM) with 4.5 g/l of glucose, containing DNAse I grade II (final concentration 0.5 mg/ml) and 10% fetal calf serum (FCS). Cells were mechanically dissociated by three forced passages through the tip of a 10-ml pipette and then centrifuged at 515×g for 10 min at 4° C. The supernatant was discarded, and the pellet was resuspended in a defined culture medium consisting of Neurobasal medium with a 2% solution of B27 supplement, 2 mmol/l of L-glutamine, 2% of PS solution, and 10 ng/ml of brain-derived neurotrophic factor (BDNF). Viable cells were counted in a Neubauer cytometer, using the trypan blue exclusion test. Cells were seeded at a density of 20,000 per well in 96-well plates precoated with poly-L-lysine and cultured at 37° C. in an air (95%)-CO2 (5%) incubator. The medium was changed every 2 days.
The hippocampal neurons were exposed with Aβ solutions (see below) after 17 days of culture. The Aβ1-42 preparation was done following the procedure described by Callizot et al. (2013) J. Neurosci. Res. 91706-716. Briefly, Aβ1-42 peptide was dissolved in the defined culture medium mentioned above, at an initial concentration of 40 μM. This solution was gently agitated for 3 days at 37° C. in the dark and immediately used after being properly diluted in culture medium to the concentrations used (20 μM (plate 1) or 2.5 μM (plate 2) corresponding to 2 μM or 0.25 μM of oligomers (AβO) respectively).
Donecopride fumarate was solved in culture medium and preincubated 1 h before Aβ application. Aβ1-42 preparation was added to a final concentration of 20 or 2.5 μM (=2 μM or 0.25 μM of AβO, evaluated by automatic Western Blot) diluted in control medium in presence of Donecopride.
Donecopride fumarate (Donecopride) was tested on one culture in a 96 well plate (6 wells per conditions). The compound was preincubated one hour before Aβ application. The following conditions were assessed:
24 hours after intoxication, the hippocampal neurons were fixed by a cold solution of ethanol (95%) and acetic acid (5%) for 5 min at −20° C. After permeabilization with 0.1% of saponin, cells were incubated for 2 h with:
a) chicken polyclonal antibody anti microtubule-associated-protein 2 (MAP-2), diluted at 1/1000 in PBS containing 1% fetal calf serum and 0.1% of saponin (this antibody allows the specific staining of neuronal cell bodies and neurites; and allow the study of neuronal cell death and neurite network).
For each condition, 30 pictures (representative of the whole well area) per well were taken using ImageXpress (Molecular Devices) at 20× magnification. All images were taken with the same acquisition parameters. Analyses were performed automatically by using Custom Module Editor (Molecular Devices).
The following endpoints were assessed: • Total number of neurons (neuron survival, number of MAP-2 positive neurons) • Neurite network (in μm of MAP-2 positive neurons) • area of tau in neurons (μm^2, overlapping with MAP-2 positive neurons).
All values are expressed as mean+/−SEM. Statistical analysis was performed by one-way ANOVA, followed by PLSD Fisher's test, p<0.05 were considered significant.
Rat hippocampal neurons were cultured as described by Callizot et al. (2013) J. Neurosci. Res. 91:706-716. […]

[1] abbreviates: Aβ1-42 injured hippocampal neurons, Example 4.

With `COc1cc2c(cc1OC)C(=O)C(CC1CCN(Cc3ccccc3)CC1)C2` (stereo not drawn) [Donepezil, reference compound], for the setting “1 μM”, the “MAP-2 neurite network (% of control)” value was 92* % of control, the “MAP-2 neurons (% of control)” value is recorded as 82* % of control and the “Neurite network/MAP-2 neurons (% of control)” value is recorded as 113* % of control.

In the case of `COc1cc(N)c(F)cc1C(=O)CCC1CCN(CC2CCCCC2)CC1` [Flucopride], the “neuroprotective effect (survival, neurite and synaptic network)” value under setting [1] is reported as “strong neuroprotective effect”. In addition, the “concentration of maximum effect on survival and neurite network” value (Aβ1-42 injured hippocampal neurons, bell shaped curve (FIGS. 1A-C)) stood at 100 nM.

As to `COc1cc(N)c(F)cc1C(=O)CCC1CCN(CC2CCCCCC2)CC1` [MR36014], the “neuroprotective effect (survival, neurite network, Tau hyperphosphorylation)” value (pM doses, Aβ1-42 injured hippocampal neurons, Example 5 (FIG. 11)) is on record as “neuroprotective effect was also observed at pM doses”.

With `COc1cc(N)c(Cl)cc1C(=O)CCC1CCN(CC2CCCCC2)CC1` [Donecopride], the “MAP-2 neurite network (% of control)” value reads like this: (1 nM) 64 % of control; (5 nM) 69 % of control; (10 nM) 68 % of control; (50 nM) 71* % of control; (100 nM) 73* % of control; (500 nM) 79* % of control. Moreover, the “MAP-2 neurite network (% of control)” value (1 μM) is 76* % of control. Besides, the “MAP-2 neurons (% of control)” value (1 nM) was 70 % of control; the “MAP-2 neurons (% of control)” value (5 nM) is reported as 69 % of control; the “MAP-2 neurons (% of control)” value (10 nM) is 73 % of control; the “MAP-2 neurons (% of control)” value (50 nM) is given as 74 % of control; the “MAP-2 neurons (% of control)” value (100 nM) is listed as 78* % of control; the “MAP-2 neurons (% of control)” value (500 nM) is 79* % of control. For the same molecule, the “MAP-2 neurons (% of control)” value (1 μM) is 62* % of control. Also, the “Neurite network/MAP-2 neurons (% of control)” value (1 nM) is recorded as 90 % of control; the “Neurite network/MAP-2 neurons (% of control)” value (5 nM) was 99 % of control; the “Neurite network/MAP-2 neurons (% of control)” value (10 nM) was 96 % of control; the “Neurite network/MAP-2 neurons (% of control)” value (50 nM) is on record as 91 % of control; the “Neurite network/MAP-2 neurons (% of control)” value (100 nM) is given as 93 % of control; the “Neurite network/MAP-2 neurons (% of control)” value (500 nM) is given as 100 % of control. Moreover, the “Neurite network/MAP-2 neurons (% of control)” value (1 μM) was 124* % of control.

For `COc1cc(N)c(F)cc1C(=O)CCC1CCN(CC2CCCC2)CC1` [MR33583], the “active concentrations (neuroprotective effect)” value (Aβ1-42 injured hippocampal neurons (FIGS. 7 and 8)) is 50 to 500 nM. In addition, under setting [1], the “effect on neurite network” value is “strong effect on neurite network was observed at almost every tested dose”; the “neuroprotective effect (survival, neurite and synaptic network)” value is on record as “neuroprotective effect following a bell shaped curved”.
